Values after ≈ are worked out from the molar mass of the structure shown.
Experiments:
[1] = In vitro release of drugs from nanoliposomes in adult bovine serum at 37° C.; assay type: in vitro ADME; settings: drug encapsulated in nSSL
Procedure: For studying the effect of biological fluids, drug loaded nSSLs were incubated up to 96 h at 37° C. in adult bovine serum (Biological Industries, Beit Haemek, Israel).

[2] = Physicochemical properties of VCR and TPT
Excerpt: The need to develop one liposome that includes two drugs at a specific predefined mole ratio required optimization of the loading conditions and “crosstalk” with the drugs. For this, physiochemical characterization of the two drugs is required.

[3] = system: Daoy medulloblastoma cells; assay: MTT cytotoxicity and median-effect (CI) analysis, Daoy; settings: for Fractional kill (fa): 72 h MTT; for Dx (Dx1, Dx2, Dx12: dose for effect level fa): doses of Table 1 (ng/ml);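 for all read-outs here: drugs applied at fixed ratios over eight concentrations for 72 h, survival expressed against untreated control wells, affected fraction (fa) derived per well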
Procedure: Human medulloblastoma (Daoy) cells, colon cancer (SW480) cells and neuroblastoma (NB-EB) cells were exposed to fixed ratios at eight concentrations of drugs for 72 hours along the profile of the most cytotoxic drug. Viable cells were quantified using standard MTT assay (T. Mosmann, Rapid colorimetric assay for cellular growth and survival: application to proliferation and cytotoxicity assays. J Immunol Methods 65(1-2) (1983) 55-63).
Test data were converted to a percentage mean cell survival value relative to untreated control wells. The fraction of affected cells (fa) was subsequently determined for each well.
The median effect analysis uses the combination index (CI) value as a quantitative indicator of the degree of synergy or antagonism. Using this analysis method, CI=1.0 reflects additive activity, CI>1 signifies antagonism, and CI<1.0 indicates synergy.
Firstly, in vitro cytotoxicity of VCR, TPT and their combinations was evaluated using the median-effect analysis of Chou et al [T. C. […] The selection of this drug interaction analysis method was based on its suitability for assessing whether drugs interact synergistically (CI<1.0), additively (CI f 1.0), or antagonistically (CI>1.0) as a function of drug concentration for different fixed drug/drug ratios.

[4] = Maximum tolerated dose (MTD); set-up: species or system mice; settings: mouse, in vivo; ≦15% body weight loss nadir lasting ≦2 days
Procedure: The MTD is determined in clinical trials by testing increasing doses on different groups of people until the highest dose with acceptable side effects is found. For each drug, the MTD as determined in clinical trials is then available via publicly available sources such as SciFinder which is the On Line search engine of The American Chemical Society for various information including MTD (in animals as well as in humans). […] In this context, the “MTD ratio” between two drugs is the ratio between the MTD determined for each drug.
Tumor volume, survival, and body weight were monitored 2-3 times per week.

in vivo = settings: nude, mouse, plasma, iv
[5] = Pharmacokinetics in tumor-bearing nude mice after i.v. administration; settings: eight hours post injection, based on AUC value
SW480 (colon) tumors = assay: Efficacy against SW480 (colon) tumors in nude mice, Kaplan-Meier; settings: SW480 tumors s.c., i.v. at days 17, 23 and 29
Procedure: Nine mice were treated in each group. All mice received injections through the tail vain at days 17, 23 and 29.
Approximately 4 million Daoy and SW480 tumor cells were inoculated subcutaneously (s.c.) in the back of 5 weeks old NUDE-Hsd:Athymic mice. Tumor weights were determined according to the equation (length×width^2)/2 using direct caliper measurements (D. M. Euhus, C. Hudd, M. C. LaRegina, F. E. Johnson, Tumor measurement in the nude mouse. J Surg Oncol 31(4) (1986) 229-234; M. M. Tomayko, C. P. Reynolds, Determination of subcutaneous tumor size in athymic (nude) mice. Cancer Chemother Pharmacol 24(3) (1989) 148-154).
The statistical significance between different treatment groups was determined using Mood's median test [A. M. Mood, Introduction to the theory of statistics, McGraw-Hill, New York, 1950.].

| Compound | release kinetics order [1] | pKa [2] | solubility ([2]; pH 6, aqueous buffer) | solubility ([2]; pH 8, aqueous buffer) | m (slope, Hill-type coefficient of the dose-effect curve) ([3]; Daoy cells) | Dx (Dx1, Dx2, Dx12: dose for effect level fa) ([3]; fa 0.1) | Dx (Dx1, Dx2, Dx12: dose for effect level fa) ([3]; fa 0.2) | Dx (Dx1, Dx2, Dx12: dose for effect level fa) ([3]; fa 0.3) | Dx (Dx1, Dx2, Dx12: dose for effect level fa) ([3]; fa 0.4) | Dx (Dx1, Dx2, Dx12: dose for effect level fa) ([3]; fa 0.5) | Dx (Dx1, Dx2, Dx12: dose for effect level fa) ([3]; fa 0.6) | Dx (Dx1, Dx2, Dx12: dose for effect level fa) ([3]; fa 0.7) | Dx (Dx1, Dx2, Dx12: dose for effect level fa) ([3]; fa 0.8) | Dx (Dx1, Dx2, Dx12: dose for effect level fa) ([3]; fa 0.9) | AUC (in vivo) | Cmax (in vivo) | MRT (in vivo) | clearance (in vivo) | half-life (in vivo) | further results |
| --- | --- | --- | --- | --- | --- | --- | --- | --- | --- | --- | --- | --- | --- | --- | --- | --- | --- | --- | --- | --- |
| CC[C@]1(O)C[C@H]2CN(CCc3c([nH]c4ccccc34)[C@@](C(=O)OC)(c3cc4c(cc3OC)N(C=O)[C@H]3[C@@](O)(C(=O)OC)[C@H](OC(C)=O)[C@]5(CC)C=CCN6CC[C@]43[C@@H]65)C2)C1 [Vincristine (VCR), Vincristine] | zero-order kinetics | 7.64 | 300 µM (≈ 247 µg/mL) | 10 µM (≈ 8.25 µg/mL) | m: 1.926 | 1.76 | 2.68 | 3.55 | 4.46 | 5.50 | 6.79 | 8.55 | 11.31 | 17.22 | 2510 ± 460 ng·h/mL | 1370 ± 340 ng/mL | 1.73 ± 0.3 h | 0.273 mL/min | 125 min | logP [2]: 2.97; logD ([2]; pH 6): 1.2; logD ([2]; pH 8): 2.81; IC50 ([3]; Homo sapiens, Daoy, read-out: Dm (dose required to produce the median-effect)): 5.51 ng/mL (≈ 6.67 nM); Log [1/(1/fa − 1)] ([3]; dose 1 ng/ml): −1.43; Fractional kill (fa) ([3]; dose 1 ng/ml): 0.04; Log [1/(1/fa − 1)] ([3]; dose 2 ng/ml): −0.93; Fractional kill (fa) ([3]; dose 2 ng/ml): 0.11; Log [1/(1/fa − 1)] ([3]; dose 4 ng/ml): −0.36; Fractional kill (fa) ([3]; dose 4 ng/ml): 0.30; Log [1/(1/fa − 1)] ([3]; dose 8 ng/ml): 0.65; Fractional kill (fa) ([3]; dose 8 ng/ml): 0.82; Log [1/(1/fa − 1)] ([3]; dose 24 ng/ml): 1.07; Fractional kill (fa) ([3]; dose 24 ng/ml): 0.92; MTD [4]: 1.5 mg/kg |
| CC[C@@]1(O)C(=O)OCc2c1cc1n(c2=O)Cc2cc3c(CN(C)C)c(O)ccc3nc2-1 [Topotecan (TPT), Topotecan] |  | 7.65 | 3600 µM (≈ 1520 µg/mL) | 200 µM (≈ 84.3 µg/mL) |  |  |  |  |  |  |  |  |  |  | 2700 ± 910 ng·h/mL | 3980 ± 1040 ng/mL | 0.6 ± 0.07 h | 1.28 mL/min | 61.8 min | Non-polar/polar surface area ratio [2]: 2.81; lactone ratio of TPT [5]: 9% |
| Topotecan [Topotecan (TPT)] | first-order kinetics followed by zero-order kinetics |  |  |  | m: 1.663 | 21.67 | 35.29 | 48.80 | 63.65 | 81.23 | 103.66 | 135.22 | 186.99 | 304.53 |  |  |  |  |  | therapeutic efficacy (Kaplan-Meier, tumor ≧1000 mg as endpoint) (SW480 (colon) tumors; listed as Free TPT): inferior to the liposomal formulations; therapeutic efficacy (Kaplan-Meier, tumor ≧1000 mg as endpoint) (SW480 (colon) tumors; listed as free TPT): more efficacious for colon cancer; Dm (dose required to produce the median-effect) ([3]; Daoy cells, […]): Dm: 81.23 ng/ml; Log [1/(1/fa − 1)] ([3]; dose 40 ng/ml): −0.64; Fractional kill (fa) ([3]; dose 40 ng/ml): 0.18; Log [1/(1/fa − 1)] ([3]; dose 60 ng/ml): −0.08; Fractional kill (fa) ([3]; dose 60 ng/ml): 0.46; Log [1/(1/fa − 1)] ([3]; dose 80 ng/ml): 0.04; Fractional kill (fa) ([3]; dose 80 ng/ml): 0.52; Log [1/(1/fa − 1)] ([3]; dose 200 ng/ml): 0.59; Fractional kill (fa) ([3]; dose 200 ng/ml): 0.80; Log [1/(1/fa − 1)] ([3]; dose 400 ng/ml): 1.15; Fractional kill (fa) ([3]; dose 400 ng/ml): 0.93 |

Source: patent publication US20130052259A1, “LIPOSOMES COMPRISING AMPHIPATHIC DRUGS AND METHOD FOR THEIR PREPARATION” (priority 2010, published 2013)
